Literature values in patent US20250120404A1, “BOTANICAL PESTICIDE COMPOSITIONS” (Mosquito Squad Franchising SPE LLC, priority 2023, published 2025).

Test system: mosquitoes
Conditions: average reported toxicity from literature, concentration/biomass
In the case of `CC(C)=CCC/C(C)=C/CO` [Geraniol], the “Concentration of Oil Extract Necessary for Mosquito Death” value (“Concentration of Oil Extract Necessary” for short) is given as “Varying levels”. In the case of `C=CCc1ccc(O)c(OC)c1` [Eugenol], the “Concentration of Oil Extract Necessary” value is listed as “Varying levels”. In the case of `CCC(=O)OCCc1ccccc1` [2-phenethyl proprionate], the “Concentration of Oil Extract Necessary” value is given as “Varying levels”.
